Patent US20080319001A1, “Cancer Treatment Using Specific 3,6,9-Substituted Acridines” (priority 2005, published 2008)

Experiments:
human telomerase = conditions: Read et al. 2001; Harrison et al. 2003; Schultes et al. 2004; cited from earlier work
DU145 xenografts = assay: DU145 xenograft efficacy study; assay type: in vivo, mouse
Experimental: The mouse was selected because it is a rodent species and is internationally accepted as the species of choice for human xenograft studies. The nu/nu MF1 strain was selected.
A high dose level of 1 mg/kg given once daily for 10 days was selected for this study. Low and intermediate dose levels of 0.3 and 0.6 mg/kg/day were also selected to aid characterisation of the dose-response profile.
The test articles were reconstituted in 0.9% physiological saline B.P. to the required final concentrations; and where necessary, an organic solvent (e.g. DMSO or ethanol) was used to aid solubilisation of some materials.
Treated mice received a bolus intravenous injection of the test formulation once daily for two weeks (week-days only). A dose-volume of […] bodyweight was be used. Control mice were untreated.
A total of 175 female MF1 mice were obtained from the Biological Research Facility, SGHMS, London. Animals were in a weight range of 26-30 g (6 to 8 weeks of age). Mice were individually identified using a subcutaneously implanted microchip.
The xenografts were prepared from the DU145 cell line (ATCC HTB-81). Cells were grown in accordance with established methodology for this cell line to provide 5×10^6 cells per mouse.
Xenografts were established in the MF1 mice by subcutaneous injection into the right flank of each mouse (5×10^6 cells in […] phosphate buffered saline).
Animals were checked regularly until visible tumours appeared. Tumours were then measured in accordance with the relevant SOP three times per week and tumour volume calculated using the formula: […]
Measurements commenced approximately one week before the day of treatment (Day 0) when the xenograft reached an approximate volume of 0.05 cm^3 (e.g. dimensions of approximately 5×5×4 mm).
Once the tumours were established, mice were allocated into groups of 5 mice using a randomization procedure based on stratified xenograft volume.
Day 0 is defined as the day on which the average tumour volume is between 0.12 to 0.16 cm^3. Relative tumour volume on Day 0 is defined as 1.
Each mouse was observed and tumours measured until the xenografts tripled in volume (3Vo) compared with volume on the day of treatment (Vo). The elapsed period was the volume tripling time (VTT).

A549-derived xenografts = assay: A549 xenograft combination study; assay type: in vivo, mouse; conditions: single agent (AS1410 1 mg/kg or cisplatin 6 mg/kg), after approximately 60 days
Experimental: AS1410 was reconstituted in 0.9% saline B.P. to the required final concentration (0.331 and 0.0993) mg/ml of AS1410 succinate salt for intravenous administration).
The xenografts were prepared from the lung carcinoma A549 (ATCC Number CCL-185). Cells were grown in accordance with standard operating procedures and established methodology for this cell line to provide 5×10^6 cells per mouse.
A549-derived xenografts were established in 50 female nu/nu MF1 mice respectively by subcutaneous injection into the right flank of each mouse (5×10^6 cells in 100 μl phosphate buffered saline).
Animals were checked regularly until visible tumours appeared. Tumours were then measured in accordance with the relevant SOP regularly and tumour volume calculated using the formula: […]
Once the tumours were established, the mice were allocated into groups of 9 mice using a randomization procedure based on stratified xenograft volume.
Day 0 is defined as the day on which the average tumour volume is between 0.04 to 0.1 cm^3. Relative tumour volume on Day 0 is defined as 1.
Each mouse was observed and tumours measured until the xenografts tripled (3V0) in volume compared with volume on the day of treatment (V0). The elapsed period is the volume tripling time (VTT).
AS1410 was given by slow bolus intravenous injection. For AS1410 a dose volume 5 μl/g bodyweight was used. Control mice were untreated. […]

SMILES | in vitro inhibitory activity against human telomerase (human telomerase) | T-C value (DU145 xenografts; 0.3 mg/kg/day iv) | T-C value (DU145 xenografts; 0.6 mg/kg/day iv) | T-C value (DU145 xenografts; 1 mg/kg/day iv) | xenograft response (DU145 xenografts; 0.3, 0.6 and 1.0 mg/kg/day iv, compared with BSG01) | relative tumour volume (A549-derived xenografts)
CN(C)c1ccc(Nc2c3ccc(NC(=O)CCN4CCCC4)cc3nc3cc(NC(=O)CCN4CCCC4)ccc23)cc1 [BSG01] | potent in vitro inhibitory activity | – | – | – | – | –
O=C(CCN1CCCC1)Nc1ccc2c(NCc3ccc(F)c(F)c3)c3ccc(NC(=O)CCN4CCCC4)cc3nc2c1 [BSG17, N-(9-(3,4-Difluoro-benzylamino)-6-(3-pyrolidin-1-yl-propionamide)-acridin-3-yl)-3-pyrrolidin-1-yl-propionamide] | – | 7 days | 11.6 days | 11 days | clear dose response and effects at all three dose levels | about 5
